No end group written: not given here.
Columns and labels:
APC [1] = target: T1, APC (Homo sapiens, UniProt P04070); test: inhibition of APC by recombinant mutant (Arg358)-α1-antitrypsin, time course; assay type: biochemical; design: Protein C consists of a 155 amino acid residue light chain and a 262 amino acid residue heavy chain; from tissue; alpha1-AT mutant from Transgene, Strasbourg; settings: 250 μM PC311-325, 500 μM PC142-155; 18 nM APC, 100 nM α1-AT
Procedure: Kinetic studies of inhibition of APC were performed with the higher affinity mutant α1 -AT pseudo-substrate. For the assay, 60 μl of 36 nM APC and/or 60 μl of 200 nM recombinant (Arg^358)-α1 -AT prepared in TBS-BSA at pH 7.4 containing 0.02% NaN3 and 2 mM CaCl2 were separately admixed with 500 μM PC311-325 or 1 mM PC142-155 and maintained for 30 minutes at 37° C. to form APC-peptide and/or α1 -AT-peptide admixtures for each peptide tested, respectively. Thereafter, the peptide-treated APC and α1 -AT admixtures were combined to form a reaction admixture. At selected time points, 8 μl aliquots from the reaction admixture were removed and admixed with 300 μl 0.8 mM S-2366 in TBS-BSA at pH 8.0 containing 0.02% NaN3 to initiate the hydrolysis of S-2366 by APC. The change in absorbance was measured over time as described in the amidolytic assay. […]
Since the number of amino acid residues involved in neutralization of APC by macromolecular plasma protease inhibitors is likely to be higher than the number of residues of APC involved in the cleavage of a small chromogenic substrate such as S-2366, the effect of anti-PC317-331 antibody on the time course of inhibition of APC by a larger pseudo-substrate, such as recombinant mutant (Arg^358)-α1 -AT was evaluated. […] The change in absorbance was measured over time as described in the amidolytic assay. […]
Target sequence in this assay (P04070 43-197): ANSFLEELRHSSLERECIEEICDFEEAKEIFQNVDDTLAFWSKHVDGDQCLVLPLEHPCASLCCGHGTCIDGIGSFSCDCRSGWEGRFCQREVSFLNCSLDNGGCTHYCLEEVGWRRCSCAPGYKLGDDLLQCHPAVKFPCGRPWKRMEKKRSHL
Target sequence in this assay (P04070 212-461): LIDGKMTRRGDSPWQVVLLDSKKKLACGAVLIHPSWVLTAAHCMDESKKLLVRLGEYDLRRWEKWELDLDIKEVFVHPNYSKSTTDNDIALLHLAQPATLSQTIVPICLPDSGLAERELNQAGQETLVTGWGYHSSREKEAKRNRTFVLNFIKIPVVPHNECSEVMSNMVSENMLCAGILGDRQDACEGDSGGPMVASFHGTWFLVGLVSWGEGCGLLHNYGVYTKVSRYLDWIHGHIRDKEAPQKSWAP

APC [2] = target: T1, APC; test: APTT and Xa-1-stage coagulation assays, inhibition of APC anticoagulant activity; assay type: biochemical; design: Protein C consists of a 155 amino acid residue light chain and a 262 amino acid residue heavy chain; from tissue; host or cells: human plasma factor IX concentrate
Procedure: The effect of the synthetic peptides on APC anticoagulant activity were determined using the APTT assay in the presence of either normal citrate anticoagulated plasma (NHP) or protein S depleted plasma (PSDP). The assays were performed essentially as described. See Marlar et al., Blood, 59:1067-1072 […]; Suzuki et al., J. Biol. Chem., 258:163-168 (1983); Gruber et al., Blood, 73:639-642 (1989); Ohlin et al., Biochem., 29:644-651 (1990). NHP was purchased from George King Bio-Medical, Inc. (Overland Park, Kans.). PSDP was prepared from a normal human citrate-anticoagulated plasma pool from ten healthy donors. Protein S was immunodepleted from the NHP by immunoaffinity chromatography of NHP over an anti-protein S antibody column to form PSDP. The anti-protein S antibody column was prepared by coupling 100 mg of a monoclonal, high-affinity, calcium-independent anti-PS antibody, designated S7, to 30 ml of CNBr-activated Sepharose 4B (Pharmacia) as described in Example 2cl).
For the APTT assay, APC was prepared as described in Example 2c2). […] The concentration of the APC used in the assay was initially optimized with respect to the sensitivity of the assay towards APC-induced prolongation of clotting time compared to clotting time without APC.
Once the optimal concentration of APC was determined, peptides from the heavy and light chains of PC and control scrambled peptides listed below in Example 5a2) in Tables 6 and 7 were then separately admixed for a final concentration of 500 μM with 10 nM APC in 100 μl of TBS-BSA at pH 7.4 to form peptide-APC admixtures. Peptides were prepared as described in Example 1. The resulting admixtures were maintained for ten minutes at 37° C. Separate aliquots of peptides maintained under the same conditions in the absence of APC served as controls for the inhibitory effect of synthetic peptides on APC anticoagulant activity. After the maintenance period, 100 μl of NHP and 100 μl APTT-reagent Thrombosil (Ortho Diagnostics, Raritan, N.J.) were admixed into each peptide admixture and maintained for 200 seconds at 37° C. to form a pre-coagulation admixture. In some experiments, PSDP was used in the place of NHP to determine the effect of Protein S on the assay system. Coagulation was then initiated by the admixture of 100 μl of 30 mM CaCl2 in TBS prewarmed to 37° C. to each of the pre-coagulation admixtures. The time for clot formation was measured by an Electra 700 Automatic Coagulation Timer (Medical Laboratory Automation, Inc., Mount Vernon, N.Y.). Each peptide's effect was determined in duplicate.
For peptides at a concentration of 500 μM that inhibited at least 50% of APC anticoagulant activity, analysis of dose-response was subsequently conducted.
For testing the inhibition of the synthetic peptides on APC activity described above, Xa-1-stage coagulation assays were also performed as described. See Seegers et al., Thrombosis Res., 13:233-243 (1978); Marlar et al., supra; and Walker et al., J. Biol. Chem., 265:1484-1489 (1990).
Target sequence in this assay (P04070 43-197 limits assumed): as the sequence (P04070 43-197) above
Target sequence in this assay (P04070 212-450 limits assumed): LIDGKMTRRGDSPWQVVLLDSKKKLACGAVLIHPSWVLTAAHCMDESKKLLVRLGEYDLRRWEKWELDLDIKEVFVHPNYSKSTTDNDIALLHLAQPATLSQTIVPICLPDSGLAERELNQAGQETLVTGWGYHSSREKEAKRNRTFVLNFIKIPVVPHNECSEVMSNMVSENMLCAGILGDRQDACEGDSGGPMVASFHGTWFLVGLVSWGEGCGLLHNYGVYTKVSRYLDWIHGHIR

[3] = mean values of APTT and Xa-1 stage assays, NHP, control peptide at 500 μM (±10%)

| Substance | effect on the time course of inhibition of APC by recombinant (Arg358)α1-AT (APC [1]) | 90% inhibition of APC anticoagulant activity (APC [2]; APTT and Xa-1-stage assays in NHP and PSDP) | IC50 (APC [2]; APTT and Xa-1-stage assays in NHP and PSDP, read-out: 50% inhibition of APC anticoagulant activity) | IC50 (concentration of peptide that inhibits 50% of APC anticoagulant activity) (APC [2]; [3]) | IC90 ** μM (concentration of peptide that inhibits 90% of APC anticoagulant activity) (APC [2]; [3]) | effect on APC anticoagulant activity (APC [2]; various concentrations up to 500 μM peptide) |
| --- | --- | --- | --- | --- | --- | --- |
| KRNRTFVLNFIKIPV-NH2 [PC311-325, Lys-Arg-Asn-Arg-Thr-Phe-Val-Leu-Asn-Phe-Ile-Lys-Ile-Pro-Val] | did not have any significant effect | approximately 50 μM | 7 to 20 µM | – | – | – |
| VKFTIRVFNPRNLKI [Control Peptide, reference compound] | – | – | – | no effect | no effect | no significant effect |

From patent US5968751A, “Method for detecting the presence of protein C antibody in a fluid sample” (The Scripps Research Institute, priority 1997, dated 1999)
